Measurements: patent US5147878A, “Aminoalkoxyphenyl derivatives, process of preparation and compositions containing the same” (Sanofi, priority 1986, dated 1992)
Structures can show the parent of a compound that is named as a salt.

Columns and labels:
[1] = Acute toxicity, intravenous, Litchfield and Wilcoxon; details: mouse, in vivo, mice
Method: The acute toxicity of the compounds of the invention was determined intravenously in mice according to the method of Litchfield and Wilcoxon (J. Pharm. Exp. Therap. […], 96, 99).
The following results were obtained, expressed in the form of the LD50, compared with a benzoylindolizine derivative, in this case 2-ethyl-3-{4-[3-(di-n-butylamino)propyloxy]benzoyl}indolizine or butoprozine.

isolated rat aorta = test: Calcium inhibitory properties: contractile response to potassium-induced depolarization on isolated rat aorta; parameters: species or system isolated organ, male Wistar rats; details: for activity at 0.1 µM / activity at 0.01 µM / activity at 0.001 µM / activity at 1 µM: Rattus norvegicus, 1 h, read-out: % of the maximum contractional effect; for activity at 0.1 µM: 10^-7 M; for activity at 0.01 µM: 10^-8 M; for activity at 0.001 µM: 10^-9 M; for activity at 1 µM: 10^-6 M
In short: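 Male Wistar rat aorta strips under 2 g tension in modified Krebs-bicarbonate at 37° C, gassed with CO2/O2; contraction induced by 100 mM KCl potassium-Krebs. Compound incubated 60 min before repeat K+ depolarization; response expressed as % of maximum contraction before compound.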

[2] = system: epinephrine-induced increase in blood-pressure (anti-α effect); test: Antiadrenergic properties: anti-α effect (reduction of epinephrine-induced hypertension); format: in vivo; parameters: key to anti-α effect: +: for a reduction < 50%; ++: for a reduction ≥ 50%; +++: for a reduction sub-total (almost complete reduction); details: dog; for inhibition in vivo at 1 mg/kg: 1 mg/kg i.v.
In short: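 Pentobarbital-anaesthetised, atropinised dogs given an epinephrine dose of 3–10 μg/kg, titrated per animal to raise blood pressure about 133×10^2 Pa. After two reference responses, test compound given intravenously. Result is % reduction of epinephrine-induced hypertension versus reference.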

[3] = system: isoprenaline-induced acceleration in heart rate (anti-β effect); test: Antiadrenergic properties: anti-β effect (reduction of isoprenaline-induced tachycardia); format: in vivo; parameters: key to anti-β effect: +: for a reduction < 50%; ++: for a reduction ≥ 50%; +++: for a reduction sub-total (almost complete reduction); details: dog; for inhibition in vivo at 1 mg/kg: 1 mg/kg i.v.
In short: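 Pentobarbital-anaesthetized, atropinized dogs given isoprenaline (1–2 μg/kg, dose set per dog for ~70 beats/min rise) alternating with epinephrine every 10 min. After two reference responses, compound given intravenously; % reduction in isoprenaline tachycardia versus reference recorded.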

[4] = Canis lupus familiaris, iv, 5 mg/kg i.v.
[5] = Canis lupus familiaris, iv, 10 mg/kg i.v., known compounds
[6] = Canis lupus familiaris, iv, 5.89 mg/kg i.v.
[7] = Canis lupus familiaris, iv, 0.12 mg/kg i.v.
[8] = Canis lupus familiaris, iv, 0.52 mg/kg i.v.

Compound | LD50 [1] | activity at 0.1 µM (isolated rat aorta) | activity at 0.01 µM (isolated rat aorta) | activity at 1 µM (isolated rat aorta) | further results
COc1ccc(CCN(C)CCCOc2ccc(S(=O)(=O)c3c(C(C)C)cn4ccccc34)cc2)cc1OC [Ex. 30, 2-Isopropyl-1-[4-{3-[N-methyl-N-(3,4-dimethoxy-β-phenethyl)amino]propyloxy}benzenesulphonyl]indolizine] | 140 mg/kg | 9.4% | 40.1% | – | activity at 0.001 µM (isolated rat aorta): 81.7%; anti-α effect ([2]; 0.1 mg/kg i.v.): +++; anti-β effect ([3]; 0.1 mg/kg i.v.): +++
CCCCN(CCCC)CCCOc1ccc(S(=O)(=O)c2c(-c3ccccc3)cn3ccccc23)cc1C.Cl [Ex. 19, 2-Phenyl-1-{4-[3-(di-n-butylamino)propyloxy]-3-methylbenzenesulphonyl}indolizine hydrochloride] | 60 mg/kg | – | – | 77.2% | –
CCCCN(CCCC)CCCOc1ccc(S(=O)(=O)c2c(C)cn3ccccc23)cc1.O=C(O)C(=O)O [Ex. 6, 2-Methyl-1-{4-[3-(di-n-butylamino)propyloxy]benzenesulphonyl}indolizine oxalate] | 31 mg/kg | 69.1% | – | 13.9% | –
CCc1cn2ccccc2c1S(=O)(=O)c1ccc(OCCCN(C)CCc2ccc(OC)c(OC)c2)cc1 [Ex. 28, 2-Ethyl-1-[4-{3-[N-methyl-N-(3,4-dimethoxy-β-phenethyl)-amino]propyloxy}benzenesulphonyl]indolizine] | 32 mg/kg | 14.2% | 60.2% | – | activity at 0.001 µM (isolated rat aorta): 85.4%; anti-α effect ([2]; 0.1 mg/kg i.v.): +++; inhibition in vivo at 0.1 mg/kg ([3]; Canis lupus familiaris, iv, 0.1 mg/kg i.v.): ≥ 50%
CCCCN(CCCC)CCCOc1ccc(S(=O)(=O)c2c(CC)cn3ccccc23)cc1C.Cl [Ex. 9, 2-Ethyl-1-{4-[3-(di-n-butylamino)propyloxy]-3-methylbenzenesulphonyl}indolizine hydrochloride] | 55 mg/kg | 57.2% | – | 17.4% | inhibition in vivo at 1 mg/kg ([2]; Canis lupus familiaris, iv): ≥ 50%; inhibition in vivo at 1 mg/kg ([3]; Canis lupus familiaris, iv): ≥ 50%
CCCCN(CCCC)CCCOc1ccc(C(=O)c2c(CC)cc3ccccn23)cc1 [Butoprozine, 2-ethyl-3-{4-[3-(di-n-butylamino)propyloxy]benzoyl}indolizine, reference compound] | 23 mg/kg | – | – | – | –
CCCCN(CCCC)CCCOc1ccc(S(=O)(=O)c2c(CCC)cn3ccccc23)cc1.O=C(O)C(=O)O [Ex. 11, 2-n-Propyl-1-{4-[3-(di-n-butylamino)propyloxy]benzenesulphonyl}indolizine oxalate] | 28 mg/kg | 37.7% | – | 8.8% | inhibition in vivo at 1 mg/kg ([2]; Canis lupus familiaris, iv): ≥ 50%; inhibition in vivo at 1 mg/kg ([3]; Canis lupus familiaris, iv): ≥ 50%
CCCCc1cn2ccccc2c1S(=O)(=O)c1ccc(OCCCN(CCCC)CCCC)cc1.O=C(O)C(=O)O [Ex. 13, 2-n-Butyl-1-{4-[3-(di-n-butylamino)propyloxy]benzenesulphonyl}indolizine oxalate] | 31 mg/kg | – | – | 39.8% | Activity ratio (isolated rat aorta; compound / Compound C): 2.0; inhibition in vivo at 5 mg/kg [2, 4]: ≥ 50%; inhibition in vivo at 5 mg/kg [3, 4]: ≥ 50%
CCCN(CCC)CCCOc1ccc(S(=O)(=O)c2c(CC)cn3ccccc23)cc1.Cl [Ex. 7, 2-Ethyl-1-{4-[3-(di-n-propylamino)propyloxy]benzenesulphonyl}indolizine hydrochloride] | 26 mg/kg | 60% | – | 8.3% | Activity ratio (isolated rat aorta; compound / Compound E): 6.0; anti-α effect ([2]; 5 mg/kg i.v.): +++; anti-β effect ([3]; 5 mg/kg i.v.): +++
CCCCN(CCCC)CCCOc1ccc(S(=O)(=O)c2c(-c3ccccc3)cn3ccccc23)cc1.Cl [Ex. 18, 2-Phenyl-1-{4-[3-(di-n-butylamino)propyloxy]benzenesulphonyl}indolizine hydrochloride] | 35 mg/kg | – | – | 55.6% | –
COc1ccc(CCN(C)CCCOc2ccc(S(=O)(=O)c3c(C(C)C)cn4ncccc34)cc2)cc1OC [Ex. 76, 5-[4-{3-[N-methyl-N-(3,4-dimethoxy-β-phenethyl)amino]propyloxy}benzenesulphonyl]-6-isopropyl-pyrrolo[1,2-b]pyridazine oxalate] | – | 0% | 18.1% | – | activity at 0.001 µM (isolated rat aorta): 68.1%; anti-α effect ([2]; 0.13 mg/kg i.v.): +++; inhibition in vivo at 0.13 mg/kg ([3]; Canis lupus familiaris, iv, 0.13 mg/kg i.v.): < 50%
CCCCN(C)CCCOc1ccc(S(=O)(=O)c2c(CC)cn3ccccc23)cc1.O=C(O)C(=O)O [Ex. 20, 2-Ethyl-1-{4-[3-(N-methyl-N-butylamino)propyloxy]benzenesulphonyl}indolizine oxalate] | – | 60% | – | 6.8% | anti-α effect ([2]; 5 mg/kg i.v.): +++; anti-β effect ([3]; 5 mg/kg i.v.): +++
CCCCc1cn2ccccc2c1C(=O)c1ccc(OCCCN(CCCC)CCCC)cc1 [Compound C, reference compound] | – | 74.4% | – | 25% | inhibition in vivo at 10 mg/kg [2, 5]: < 50%; inhibition in vivo at 10 mg/kg [3, 5]: 0%
CCCCc1nc2ccccc2n1S(=O)(=O)c1ccc(OCCCN(CCCC)CCCC)cc1 [Ex. 65, 2-n-butyl-1-{4-[3-(di-n-butylamino)propyloxy]benzenesulphonyl}benzimidazolacid oxalate] | – | 64.8% | – | 47.5% | inhibition in vivo at 5.89 mg/kg [2, 6]: ≥ 50%; inhibition in vivo at 5.89 mg/kg [3, 6]: ≥ 50%
CCCCCN(CCCCC)CCCOc1ccc(S(=O)(=O)c2c(CC)cn3ccccc23)cc1.Cl [Ex. 26, 2-Ethyl-1-{4-[3-(di-n-pentylamino)propyloxy}benzenesulphonyl}indolizine hydrochloride] | – | 42.9% | 82.9% | – | anti-α effect ([2]; 0.5 mg/kg i.v.): +++; inhibition in vivo at 0.5 mg/kg ([3]; Canis lupus familiaris, iv, 0.5 mg/kg i.v.): ≥ 50%
CCCCN(CCCC)CCCOc1ccc(S(=O)(=O)c2c(C(C)C)nn3ccccc23)cc1 [Ex. 70, 2-isopropyl-3-{4-[3-(di-n-butylamino)propyloxy]benzenesulphonyl}pyrazolo[1,5-a]pyridine oxalate] | – | 18.9% | 83% | 0% | inhibition in vivo at 0.12 mg/kg [2, 7]: ≥ 50%; inhibition in vivo at 0.12 mg/kg [3, 7]: < 50%
CC(C)c1nn2ccccc2c1S(=O)(=O)c1ccc(OCCCNC(C)(C)C)cc1 [Ex. 72, 2-isopropyl-3-{4-[3-(tertiobutylamino)propyloxy]benzenesulphonyl}pyrazolo[1,5-a]pyridine oxalate] | – | 66.5% | 84% | 13.2% | inhibition in vivo at 0.52 mg/kg [2, 8]: ≥ 50%; inhibition in vivo at 0.52 mg/kg [3, 8]: < 50%
